# Values joined by “and” are separate entries in the source; they are usually repeats but may differ in a detail not shown here. Equal values may be shown once.
# Target: human NaV1.8 (Homo sapiens (Human), UniProt Q9Y5Y9)
# Experiment: Nav1.8 Qube automated patch-clamp assay
# Assay type: cell-based
# Conditions: human NaV1.8 stably expressed in HEK 293 cells; automated 384-well patch-clamp; resting or inactivated state not specified
# Method in brief: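 IC50 values from Hill-equation fits of offline percent inhibition: the 1st pulse gave resting and the 10th pulse inactivated-state inhibition. Stimulus was a 10 s, 1 Hz train to 10 mV (holding −90 mV, −67 mV interpulse) applied at room temperature to HEK293 cells stably expressing human NaV1.8 (Qube).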
# human NaV1.8, sequence (Q9Y5Y9 whole entry): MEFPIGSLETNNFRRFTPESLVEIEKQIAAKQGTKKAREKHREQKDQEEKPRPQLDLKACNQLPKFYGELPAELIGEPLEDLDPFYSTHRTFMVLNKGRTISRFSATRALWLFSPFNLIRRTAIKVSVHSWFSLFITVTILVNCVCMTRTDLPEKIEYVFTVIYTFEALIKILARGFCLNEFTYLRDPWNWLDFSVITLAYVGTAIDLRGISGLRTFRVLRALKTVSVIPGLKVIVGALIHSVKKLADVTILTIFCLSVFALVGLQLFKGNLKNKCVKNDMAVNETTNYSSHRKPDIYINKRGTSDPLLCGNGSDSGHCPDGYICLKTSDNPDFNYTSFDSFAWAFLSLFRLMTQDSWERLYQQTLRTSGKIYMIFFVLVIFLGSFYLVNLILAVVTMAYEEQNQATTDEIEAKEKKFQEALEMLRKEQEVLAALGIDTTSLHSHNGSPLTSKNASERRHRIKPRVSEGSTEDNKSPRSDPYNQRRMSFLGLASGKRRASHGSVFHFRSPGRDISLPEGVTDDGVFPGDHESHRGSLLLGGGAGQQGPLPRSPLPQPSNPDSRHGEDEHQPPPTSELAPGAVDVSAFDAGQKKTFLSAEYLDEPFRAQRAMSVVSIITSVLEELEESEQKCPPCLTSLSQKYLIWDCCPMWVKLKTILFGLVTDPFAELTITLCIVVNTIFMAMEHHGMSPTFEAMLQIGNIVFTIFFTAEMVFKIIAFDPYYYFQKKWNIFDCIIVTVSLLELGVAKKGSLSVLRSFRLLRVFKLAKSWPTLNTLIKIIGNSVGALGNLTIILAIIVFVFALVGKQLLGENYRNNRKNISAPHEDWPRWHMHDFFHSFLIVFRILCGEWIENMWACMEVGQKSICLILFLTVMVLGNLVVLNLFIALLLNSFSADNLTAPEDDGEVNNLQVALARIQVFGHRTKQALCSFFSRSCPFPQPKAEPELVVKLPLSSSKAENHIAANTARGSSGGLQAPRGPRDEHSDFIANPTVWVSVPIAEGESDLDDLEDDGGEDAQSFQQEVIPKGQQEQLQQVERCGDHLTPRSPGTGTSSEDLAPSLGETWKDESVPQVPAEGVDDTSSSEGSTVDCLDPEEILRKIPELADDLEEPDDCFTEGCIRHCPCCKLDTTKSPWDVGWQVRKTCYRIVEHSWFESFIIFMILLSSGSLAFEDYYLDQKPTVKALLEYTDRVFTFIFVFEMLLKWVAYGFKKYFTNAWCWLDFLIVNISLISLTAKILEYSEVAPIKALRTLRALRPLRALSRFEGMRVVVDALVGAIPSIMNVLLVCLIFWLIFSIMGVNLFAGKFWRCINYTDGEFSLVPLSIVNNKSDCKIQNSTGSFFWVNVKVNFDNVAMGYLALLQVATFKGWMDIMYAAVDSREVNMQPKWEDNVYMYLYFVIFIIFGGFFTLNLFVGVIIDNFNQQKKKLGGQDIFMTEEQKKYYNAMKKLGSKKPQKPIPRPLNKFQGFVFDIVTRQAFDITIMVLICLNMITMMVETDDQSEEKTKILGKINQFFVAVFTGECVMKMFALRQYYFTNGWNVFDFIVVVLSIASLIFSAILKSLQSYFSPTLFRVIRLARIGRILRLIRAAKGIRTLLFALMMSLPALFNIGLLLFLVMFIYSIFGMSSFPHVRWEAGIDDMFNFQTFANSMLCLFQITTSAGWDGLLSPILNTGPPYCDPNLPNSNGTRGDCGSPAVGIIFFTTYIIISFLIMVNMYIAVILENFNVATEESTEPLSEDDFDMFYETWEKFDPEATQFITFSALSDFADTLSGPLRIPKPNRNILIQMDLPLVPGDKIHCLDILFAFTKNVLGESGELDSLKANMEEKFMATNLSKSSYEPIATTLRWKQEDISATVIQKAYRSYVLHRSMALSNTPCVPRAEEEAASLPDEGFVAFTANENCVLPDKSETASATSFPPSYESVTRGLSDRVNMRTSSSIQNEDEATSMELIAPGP
row,Compound,IC50
1,"O=C1NC[C@@H](C(=O)NC(c2cnc(C(F)(F)F)nc2)c2ccc(F)c(Cl)c2F)N1 (single isomer, unassigned) [Example 48, (S)-N-((R or S)-(3-chloro-2,4-difluorophenyl)(2-(trifluoromethyl)pyrimidin-5-yl)methyl)-2-oxoimidazolidine-4-carboxamide]",16 nM
2,"O=C1NC[C@@H](C(=O)NC(c2ccc(OC(F)(F)F)c(Cl)c2)c2coc(C(F)(F)F)n2)N1 (single isomer, unassigned) [Example 47B, (S)-N-((R or S)-(3-chloro-4-(trifluoro-methoxy)phenyl)(2-(trifluoromethyl)oxazo 1-4-yl)methyl)-2-oxoimidazolidine-4-carboxamide]",3.9 nM
3,"O=C1NC[C@@H](C(=O)NC(c2ccc(OC(F)(F)F)cc2)c2ccc3c(c2)C(F)(F)C3)N1 (single isomer, unassigned) [Example 89, (S)—N—((R or S)-(8,8-difluorobicyclo[4.2.0]octa-1(6),2,4-trien-3-yl)(4-(trifluoromethoxy)phenyl)methyl)-2-oxoimidazolidine-4-carboxamide]",4.9 nM
4,"O=C1NC[C@@H](C(=O)NC(c2ccc(OC(F)(F)F)c(Cl)c2)c2cnn(C(F)(F)F)c2)N1 (single isomer, unassigned) [Example 41B, (S)—N—((R or S)-(3-chloro-4-(trifluoromethoxy)phenyl)(1-(trifluoromethyl)-1H-pyrazol-4-yl)-l3-methyl)-2-oxoimidazolidine-4-carboxamide]",16 nM
5,"CC(N1CC(C)(C(NC(=O)[C@@H]2CNC(=O)N2)c2ccc(F)c(Cl)c2F)C1)C(F)(F)F (single isomer, unassigned) [Example 65D, (S)—N—((R or S)-(3-chloro-2,4-difluorophenyl)(3-methyl-1-((R or S)-1,1,1-trifluoropropan-2-yl)azetidin-3-yl)methyl)-2-oxoimidazolidine-4-carboxamide]",7760 nM
6,"O=C1NC[C@@H](C(=O)NC(c2ccc(F)c(Cl)c2F)C2COC(C(F)(F)F)C2)N1 (single isomer, unassigned) [Example 79C, (S)-N-((R or S)-(3-chloro-2,4-difluoro-phenyl)((cis or trans)-5-(trifluoromethyl)tetrahydrofuran-3-yl)methyl)-2-oxoimidazolidine-4-carboxamide]",886 nM
7,"O=C1NC[C@@H](C(=O)NC(c2ccc(OC(F)(F)F)cc2)c2ccc(Cl)c(C3CC3)n2)N1 (single isomer, unassigned) [Example 40B, (S)-N-((R or S)-(5-chloro-6-cyclopropylpyridin-2-yl)(4-(trifluoromethoxy)phenyl)methyl)-2-oxoimidazolidine-4-carboxamide]",3.5 nM
8,"O=C1NC[C@@H](C(=O)NC(c2ccc(OC(F)(F)F)c(Cl)c2)c2ccc(OC(F)(F)F)cn2)N1 (single isomer, unassigned) [Example 39B, (S)—N—((R or S)-(3-chloro-4-(trifluoromethoxy)phenyl)(5-(trifluoromethoxy)pyridin-2-yl)methyl)-2-oxoimidazolidine-4-carboxamide]",2.5 nM
9,"O=C1NC[C@@H](C(=O)NC(c2ccc(F)c(Cl)c2F)C2CC3(C2)CC(F)(F)C3)N1 (single isomer, unassigned) [Example 37, (S)-N-((R or S)-(3-chloro-2,4-difluorophenyl)(6,6-difluorospiro[3.3]heptan-2-yl)methyl)-2-oxoimidazolidine-4-carboxamide]",11 nM
10,"Cc1nc2ccc(C(NC(=O)[C@@H]3CNC(=O)N3)c3ccc(Cl)cc3)cc2o1 (single isomer, unassigned) [Example 83A, (S)-N-((R or S)-(4-chlorophenyl)(2-methylbenzo[d]oxazol-6-yl)methyl)-2-oxoimidazolidine-4-carboxamide]",147 nM
11,"O=C1NC[C@@H](C(=O)NC(c2cnc(OCC(F)(F)F)s2)c2ccc(F)c(Cl)c2F)N1 (single isomer, unassigned) [Example 35B, (S)-N-((R or S)-(3-chloro-2,4-difluorophenyl)(2-(2,2,2-trifluoroethoxy)thiazol-5-yl)methyl)-2-oxoimidazolidine-4-carboxamide]",64 nM
12,"O=C1NC[C@@H](C(=O)NC(c2cnc(OCC(F)(F)F)c(F)c2)c2ccc(F)c(C(F)(F)F)n2)N1 (single isomer, unassigned) [Example 46B, (S)-N-((R or S)-(5-fluoro-6-(2,2,2-trifluoroethoxy)pyridin-3-yl)(5-fluoro-6-(trifluoromethyl)pyridin-2-yl)methyl)-2-oxoimidazolidine-4-carboxamide]",27 nM and 6 nM
13,"O=C1NC[C@@H](C(=O)NC(c2ccc(OC(F)(F)F)c(Cl)c2)c2ccnc(C(F)(F)F)n2)N1 (single isomer, unassigned) [Example 49B, (S)-N-((R or S)-3-chloro-4-(trifluoro-methoxy)phenyl)(2-(trifluoromethyl)pyrimidin-4-yl)methyl)-2-oxoimidazolidine-4-carboxamide]",6.8 nM
14,"O=C1NC[C@@H](C(=O)NC(c2ccc(Cl)cc2)c2cccc(OC(F)F)n2)N1 (single isomer, unassigned) [Example 74A, (S)-N-((R or S)-(4-chlorophenyl)(6-(difluoromethoxy)pyridin-2-yl)methyl)-2-oxoimidazolidine-4-carboxamide]",19 nM
15,"CC1(C)CC(C(NC(=O)[C@@H]2CNC(=O)N2)c2ccc(F)c(Cl)c2F)C1 (single isomer, unassigned) [Example 30A, (4S)-N-[(R or S)-(3-chloro-2,4-di-fluoro-phenyl)(3,3-dimethylcyclobutyl)meth-yl]-2-oxoimidazolidine-4-carboxamide]",4.6 nM
16,"O=C1NC[C@@H](C(=O)NC(c2ccc(F)c(Cl)c2)C2C3CN(CC(F)(F)F)CC32)N1 (single isomer, unassigned) [Example 77B, (4S)-N-((1(R or S))-(3-chloro-4-fluorophenyl)(3-(2,2,2-trifluoroethyl)-3-azabicyclo[3.1.0]hexan-6-yl)methyl)-2-oxoimidazolidine-4-carboxamide]",267 nM
17,"O=C1NC[C@@H](C(=O)NC(c2cnc(C(F)(F)F)c(Cl)c2)c2ccc(Cl)c(C(F)(F)F)n2)N1 (single isomer, unassigned) [Example 56B, (S)-N-((R or S)-(5-chloro-6-(trifluoromethyl)pyridin-2-yl)(5-chloro-6-(trifluoromethyl)pyridin-3-yl)methyl)-2-oxoimidazolidine-4-carboxamide]",4.5 nM
18,"O=C1NC[C@@H](C(=O)NC(c2ccc(OC(F)(F)F)c(Cl)c2)c2ccc(OC(F)(F)F)cn2)N1 (single isomer, unassigned) [Example 39A, (S)—N—((R or S)-(3-chloro-4-(trifluoromethoxy)phenyl)(5-(trifluoromethoxy)pyridin-2-yl)methyl)-2-oxoimidazolidine-4-carboxamide]",1.3 nM

# The remaining lines, values ahead:
row,IC50,Compound
1,268 nM,"Cn1nc(C(F)(F)F)cc1C(NC(=O)[C@@H]1CNC(=O)N1)c1ccc(F)c(Cl)c1 (single isomer, unassigned) [Example 31B, (S)-N-((R or S)-(3-chloro-4-fluorophenyl)(1-methyl-3-(tri-fluoromethyl)-1H-pyrazol-5-yl)methyl)-2-oxoimidazolidine-4-carboxamide]"
2,182 nM,"O=C1NC[C@@H](C(=O)NC(c2ccc(F)c(Cl)c2)[C@@H]2CC[C@H]2C(F)(F)F)N1 (single isomer, unassigned) [Example 67A, (S)-N-((R or S)-(3-chloro-4-fluoro-phenyl)(trans-2-(trifluoromethyl)cyclobutyl)methyl)-2-oxoimidazolidine-4-carboxamide]"
3,4.3 nM,"O=C1NC[C@@H](C(=O)NC(CCc2ccc(Cl)cc2)c2ccc(F)c(Cl)c2F)N1 (single isomer, unassigned) [Example 52B, (4S)—N—((R or S)-1-(3-chloro-2,4-difluorophenyl)-3-(4-chlorophenyl)propyl)-2-oxoimidazolidine-4-carboxamide]"
4,44 nM,"O=C1NC[C@@H](C(=O)NC(c2ccc(F)c(Cl)c2)C2Cc3ccc(Cl)cc32)N1 (stereo partly drawn) [Example 71, (4S)-N-((3-chloro-4-fluorophenyl)(4-chlorobicyclo[4.2.0]-octa-1(6),2,4-trien-7-yl)methyl)-2-oxoimidazolidine-4-carboxamide]"
5,54 nM,"O=C1NC[C@@H](C(=O)NC(c2ccc(Cl)cc2)c2ccc3ncsc3c2)N1 (mixture of isomers) [Example 81, (4S)-N-(benzo[d]thiazol-6-yl(4-chlorophenyl)methyl)-2-oxoimidazolidine-4-carboxamide]"
6,18 nM,"N#Cc1ccc(C(NC(=O)[C@@H]2CNC(=O)N2)c2ccc(F)c(Cl)c2)cc1 (single isomer, unassigned) [Example 18A, (S)-N-((R or S)-(3-chloro-4-fluoro-phenyl)(4-cyano-phenyl)methyl)-2-oxoimidazolidine-4-carboxamide]"
7,74 nM,"O=C1NC[C@@H](C(=O)NC(c2ccc(F)c(Cl)c2)c2nc3cccnc3s2)N1 (stereo partly drawn) [Example 72, (4S)-N-((3-chloro-4-fluorophenyl)(thiazolo [5,4-b]pyridin-2-yl)methyl)-2-oxoimidazolidine-4-carboxamide]"
8,26 nM,"O=C1NC[C@@H](C(=O)NC(c2ccc(F)c(Cl)c2)C2Cc3c(Cl)cccc32)N1 (single isomer, unassigned) [Example 70A, (S)-N-((R or S)-(3-chloro-4-fluoro-phenyl)((R or S)-2-chlorobicyclo[4.2.0]-octa-1(6),2,4-trien-7-yl)methyl)-2-oxoimidazolidine-4-carboxamide]"
9,46 nM,"O=C1NC[C@@H](C(=O)NC(CCc2ccc(Cl)cc2)c2ccc(F)c(Cl)c2F)N1 (single isomer, unassigned) [Example 52A, (4S)—N—((R or S)-1-(3-chloro-2,4-difluorophenyl)-3-(4-chlorophenyl)propyl)-2-oxoimidazolidine-4-carboxamide]"
